Reference: ChEMBL document CHEMBL5523678, “Synthesis and clinical application of new drugs approved by FDA in 2023” (Eur J Med Chem, 2024)

Tests used:
[1] = Inhibition of Drosophila melanogaster GABA receptor
[2] = Inhibition of Gamma secretase (unknown origin); design: species or system Homo sapiens

| IC50 [1] [nM] | IC50 [2] [nM] | SMILES |
| --- | --- | --- |
| 23.8 |  | Cc1cc(C2=NO[C@@](c3cc(Cl)c(Cl)c(Cl)c3)(C(F)(F)F)C2)sc1C(=O)NCC(=O)NCC(F)(F)F [LOTILANER] |
|  | 6.2 | CCC[C@H](N[C@H]1CCc2cc(F)cc(F)c2C1)C(=O)Nc1cn(C(C)(C)CNCC(C)(C)C)cn1 [NIROGACESTAT] |
